We go through 34 molecules from patent publication US6455587B1 (priority 2000, dated 2002).

In one assay the target is T1, recombinant HIV-1 protease (Human immunodeficiency virus type 1 group M subtype B, UniProt P04585).
T1 construct: recombinant HIV-1 protease (final concentration 2.18 nM) purchased from Bachem Bioscience; purchased Bachem Bioscience
Kind of assay: Enzymatic fluorometric (FRET) assay for determining the inhibition constant (Ki) against HIV protease. The format is biochemical. Particulars: Ki (nM). The source says:
An Enzymatic assay for determining the inhibition constant (Ki) of synthetic compounds targeting the HIV protease may be carried out as follows: This is a fluorometric assay based on the cleavage by protease of a substrate carrying a donor group (EDANS) and an acceptor group (DABCYL) on each side of the cleavage site, interacting together through fluorescence resonance energy transfer (FRET). Cleavage of the substrate by protease stops energy exchange between the two groups, resulting in a time-dependent increase in fluorescence intensity that is linearly related to the extent of substrate hydrolysis.
The enzymatic assay is done at 31° C. in white 96-well fluorescence microplates, in a total volume of 200 μL per well. The apparatus used for analysis is a FL600 fluorescence microplate reader (Biotek Instruments). […] Excitation of the fluorophore is done at 340 nm and emission at 485 nm is recorded continuously during the reaction, allowing determination of the enzyme's initial velocity (v0). At the end of the 4 min incubation, the potential inhibitor at a defined concentration in a volume of 4 μL is added to the reaction, and fluorescence readings are taken for another 4 min, allowing determination of enzyme velocity (vi) in the presence of the inhibitory compound. Several concentrations of the putative inhibitors are tested in the assay. After calculation of v0 and vi, the inhibition constant (Ki) of the compound is determined using the equation of Henderson: [formula]
and [I]=inhibitor concentration, [S]=substrate concentration,
Km=Michaelis-Menten constant, Kiapp=apparent Ki
Graphs are traced and the Ki determined using GraphPad Prism software v. 3.0.
For orientation: Ki means the equilibrium dissociation constant of an inhibitor or competing ligand from its target. Consider `CC(C)CN([C@@H](CCCCNC(=O)OCC1c2ccccc2-c2ccccc21)C(=O)O)S(=O)(=O)c1ccc(C(C)(C)C)cc1` [Compound 10, Nα-Isobutyl-Nα-(4-tert-butylbenzenesulfonyl)-Nε-(9-fluorenylmethoxycarbonyl)-L-lysine], for which the Ki turned out to be 257 nM. For the molecule `O=C(NCCCC[C@H](NC(=O)OCC1c2ccccc2-c2ccccc21)C(=O)O)OCC1c2ccccc2-c2ccccc21` [Compound 71, Nα,Nε-di-(9-Fluorenylmethoxycarbonyl)-L-lysine], the Ki came to 44800 nM.

The assay is the same for the next values; noted with them: Ki (nM), fluorometric FRET assay, recombinant HIV-1 protease, pH 4.7, 31° C.
Take `CC(C)CN([C@@H](CCCCNC(=O)C=Cc1cccc([N+](=O)[O-])c1)C(=O)O)S(=O)(=O)c1ccc([N+](=O)[O-])cc1` [Compound 108, Nα-Isobutyl-Nα-(4-nitrobenzenesulfonyl)-Nε-(3-nitrocinnamoyl)-L-lysine]: the inhibition constant Ki was over 300 nM.

`CC(C)CN([C@@H](CCCCNC(=O)C=Cc1ccc([N+](=O)[O-])cc1)C(=O)O)S(=O)(=O)c1ccc([N+](=O)[O-])cc1` [Compound 111, Nα-Isobutyl-Nα-(4-nitrobenzenesulfonyl)-Nε-(4-nitrocinnamoyl)-L-lysine]: the inhibition constant Ki is 34.4 nM.

Still in this assay, the particulars now being: fluorometric FRET assay, 31° C., pH 4.7, recombinant HIV-1 protease 2.18 nM, substrate 10 μM; read-out: Ki.
With `COc1ccc(C=CC(=O)NCCCC[C@@H](C(=O)O)N(CC(C)C)S(=O)(=O)c2ccc([N+](=O)[O-])cc2)c(OC)c1` [Compound 191, Nα-Isobutyl-Nα-(4-nitrobenzenesulfonyl)-Nε-(2,4-dimethoxycinnamoyl)-L-lysine], the Ki is over 75 nM. The same measure, in the same setting: the value for `CC(C)CN([C@@H](CCCCNC(=O)COc1ccccc1)C(=O)O)S(=O)(=O)c1ccc(N)cc1` [Compound 192, Nα-Isobutyl-Nα-(4-aminobenzenesulfonyl)-Nε-phenoxyacetyl-L-lysine] was 8.2 nM; that for `COc1ccc(C=CC(=O)NCCCC[C@@H](C(=O)O)N(CC(C)C)S(=O)(=O)c2ccc([N+](=O)[O-])cc2)cc1OC` [Compound 193, Nα-Isobutyl-Nα-(4-nitrobenzenesulfonyl)-Nε-(3,4-dimethoxycinnamoyl)-L-lysine] was over 75 nM.

Staying with this assay, now noted: fluorometric FRET assay, recombinant HIV-1 protease, pH 4.7, 31° C.; read-out: Ki.
Turning to `CC(C)CN(C(CCCCNC(=O)OCC1c2ccccc2-c2ccccc21)C(=O)O)S(=O)(=O)c1ccc(Cl)cc1` (racemic) [Compound 1, Nα-Isobutyl-Nα-(4-chlorobenzenesulfonyl)-Nε-(9-fluorenylmethoxycarbonyl)-DL-lysine], the Ki came out at 20.5 nM. `CC(C)CN([C@@H](CCCCNC(=O)OCC1c2ccccc2-c2ccccc21)C(=O)O)S(=O)(=O)c1ccc(N)cc1` [Compound 44, Nα-(4-Aminobenzenesulfonyl)-Nα-isobutyl-Nε-(9-fluorenylmethoxycarbonyl)-L-lysine]: the Ki was determined as 2.1 nM. On the same count and under the same terms, next, `CC(C)CN(C(=O)c1ccccc1)[C@@H](CCCCNC(=O)OCC1c2ccccc2-c2ccccc21)C(=O)O` [Compound 46, Nα-Isobutyl-Nα-benzoyl-Nε-(9-fluorenylmethoxycarbonyl)-L-lysine]: over 100 nM. Same read-out and setting: the value for `COc1ccccc1/C=C/C(=O)NCCCC[C@@H](C(=O)O)N(CC(C)C)S(=O)(=O)c1ccc([N+](=O)[O-])cc1` [Compound 161, Nα-Isobutyl-Nα-(4-nitrobenzenesulfonyl)-Nε-(trans-2-methoxycinnamoyl)-L-lysine] was over 300 nM. On the same count and under the same terms, the value for `CC(C)(C)OC(=O)N[C@@H](CCCNC(=O)OCc1ccccc1)C(=O)O` [Compound 137] was over 200000 nM; that for `CC(C)CN(CCC[C@H](NC(=O)OCC1c2ccccc2-c2ccccc21)C(=O)O)S(=O)(=O)c1ccc(Br)cc1` [Compound 41, Nα-(9-Fluorenylmethoxycarbonyl)-Nδ-isobutyl-Nδ-(4-bromobenzenesulfonyl)-L-ornithine] was over 50000 nM.

Turning to “Nα, Nε-diisobutyl-Nα-(4-methylbenzenesulfonyl)-Nε-(3-phenylpropanoyl)-DL-lysine [Compound 159]”, the Ki is 28000 nM. `Cc1cc(C)c(S(=O)(=O)NCCCC[C@H](NC(=O)OCC2c3ccccc3-c3ccccc32)C(=O)O)c(C)c1` [Compound 27, Nε-(2,4,6-Trimethylbenzenesulfonyl)-Nα-(9-fluorenylmethoxycarbonyl)-L-lysine]: the Ki was over 50000 nM. Turning to `COc1cc(C=CC(=O)NCCCC[C@@H](C(=O)O)N(CC(C)C)S(=O)(=O)c2ccc([N+](=O)[O-])cc2)cc(OC)c1` [Compound 189, Nα-Isobutyl-Nα-(4-nitrobenzenesulfonyl)-Nε-(3,5-dimethoxycinnamoyl)-L-lysine], the Ki worked out at 108 nM. Same read-out and setting: next, `COc1ccc(S(=O)(=O)N(CC(C)C)[C@@H](CCCCNC(=O)OCC2c3ccccc3-c3ccccc32)C(=O)O)cc1` [Compound 7, Nα-Isobutyl-Nα-(4-methoxybenzenesulfonyl)-Nε-(9-fluorenylmethoxycarbonyl)-L-lysine]: 10.6 nM; `O=C(O)[C@H](CCCCN(Cc1ccc(F)cc1)S(=O)(=O)c1ccc(Br)cc1)NS(=O)(=O)c1ccc(Br)cc1` [Compound 60, Nα,Nε-di-(4-bromobenzenesulfonyl)-Nε-(4-fluorobenzyl)-L-lysine]: over 50000 nM. As to `O=C(N[C@@H](CCCCNS(=O)(=O)c1ccc(Br)cc1)C(=O)O)C(c1ccccc1)c1ccccc1` [Compound 36, Nα-(Diphenylacetyl)-Nε-(4-bromobenzenesulfonyl)-L-lysine], the inhibitory constant (Ki) was found to be 24000 nM. As for `CC(C)CN(C(CCCCNC(=O)OCc1ccccc1)C(=O)O)S(=O)(=O)c1ccc(I)cc1` (racemic) [Compound 48, Nα-Isobutyl-Nα-(4-iodobenzenesulfonyl)-Nε-benzyloxycarbonyl-DL-lysine], the Ki was over 100 nM. For the molecule “Nα-Isobutyl-Nα-(4-aminobenzenesulfonyl)-Nε-(4-methoxydihydrocinnamoyl)-L-lysine [Compound 120]”, the inhibition constant Ki turned out to be 21.7 nM.

For the molecule “Nα-Isobutyl-Nα-(4-aminobenzenesulfonyl)-Nε-(3,4-methylenedioxydihydrocinnamoyl)-L-lysine [Compound 155]”, the Ki was over 300 nM.

As for `COc1ccc(OC)c(C=CC(=O)NCCCC[C@@H](C(=O)O)N(CC(C)C)S(=O)(=O)c2ccc([N+](=O)[O-])cc2)c1` [Compound 190, Nα-Isobutyl-Nα-(4-nitrobenzenesulfonyl)-Nε-(2,5-dimethoxycinnamoyl)-L-lysine], the inhibition constant (Ki) is over 75 nM. Take `O=C(O)[C@H](CCCN(Cc1ccc(F)cc1)S(=O)(=O)c1ccc(Br)cc1)NS(=O)(=O)c1ccc(Br)cc1` [Compound 59, Nα,Nδ-di-(4-Bromobenzenesulfonyl)-Nδ-(4-fluorobenzyl)-L-ornithine]: the inhibitory constant (Ki) was over 34900 nM. On the same count and under the same terms, the value for `CCC(CC)CN([C@@H](CCCCNC(=O)OCc1ccccc1)C(=O)OCc1ccccc1)S(=O)(=O)c1ccc(C)cc1` [Compound 80] was over 1250 nM. Same read-out and setting: next, `CC(C)CN(C(CCCCNC(=O)OCc1ccccc1)C(=O)OCc1ccccc1)S(=O)(=O)C=Cc1ccccc1` (stereo not shown) [Compound 76]: over 1250 nM; `O=C(N[C@@H](CCCCNS(=O)(=O)c1ccc2ccccc2c1)C(=O)O)OCC1c2ccccc2-c2ccccc21` [Compound 32, Nε-(2-Naphthalenesulfonyl)-Nα-(9-fluorenylmethoxycarbonyl)-L-lysine]: 10000 nM. On the same count and under the same terms, next, `COc1cccc(C=CC(=O)NCCCC[C@@H](C(=O)O)N(CC(C)C)S(=O)(=O)c2ccc([N+](=O)[O-])cc2)c1` [Compound 162, Nα-Isobutyl-Nα-(4-nitrobenzenesulfonyl)-Nε-(3-methoxycinnamoyl)-L-lysine]: over 300 nM; `COc1cccc(CCC(=O)NCCCC[C@@H](C(=O)O)N(CC(C)C)S(=O)(=O)c2ccc(N)cc2)c1` [Compound 156, Nα-Isobutyl-Nα-(4-aminobenzenesulfonyl)-Nε-(3-methoxydihydrocinnamoyl)-L-lysine]: 16.7 nM.

On to `CC(C)CN(C(CCCCNC(=O)OCC1c2ccccc2-c2ccccc21)C(=O)O)S(=O)(=O)c1ccc(F)cc1` (racemic) [Compound 3, Nα-Isobutyl-Nα-(4-fluorobenzenesulfonyl)-Nε-(9-fluorenylmethoxycarbonyl)-DL-lysine], for which the Ki stood at 17.4 nM. Still for that read-out and setting: next, “Nα-Isobutyl-Nα-(4-methylbenzenesulfonyl)-Nε-phenoxyacetyl-L-lysine [Compound 203]”: 16000 nM; `O=C(O)[C@H](CCCNS(=O)(=O)c1ccc(Br)cc1)NS(=O)(=O)c1ccc(Br)cc1` [Compound 57, Nα,Nδ-di-(4-Bromobenzenesulfonyl)-L-ornithine]: 42400 nM; `O=C(NCCCC[C@H](NS(=O)(=O)c1ccccc1[N+](=O)[O-])C(=O)O)OCC1c2ccccc2-c2ccccc21` [Compound 107, Nα-(2-Nitrobenzenesulfonyl)-Nε-(9-fluorenylmethoxycarbonyl)-L-lysine]: 3970 nM. Consider `O=C(O)[C@H](CCCCNS(=O)(=O)c1ccc(Br)cc1)NC(=O)C(O)(c1ccccc1)c1ccccc1` [Compound 37, Nα-(Diphenylhydroxyacetyl)-Nε-(4-bromobenzenesulfonyl)-L-lysine], for which the inhibition constant (Ki) is 54000 nM.
